biological target: T1, MAGE-A11:PCF11 interaction (GST-MAGE-A11 and FAM-PCF11_4) (Homo sapiens, UniProt P43364); experiment: TR-FRET primary / single point screen at 15 µM; assay type: binding; settings: single point TR-FRET screening of 797 quinoline compounds against MAGE-A11:PCF11
T1 construct: GST-MAGE-A11 MHD (human MAGE-A11 MHD amino acid 218-429); made in house; host or cells: E. coli BL21(DE3)
T1 sequence (P43364 218-429): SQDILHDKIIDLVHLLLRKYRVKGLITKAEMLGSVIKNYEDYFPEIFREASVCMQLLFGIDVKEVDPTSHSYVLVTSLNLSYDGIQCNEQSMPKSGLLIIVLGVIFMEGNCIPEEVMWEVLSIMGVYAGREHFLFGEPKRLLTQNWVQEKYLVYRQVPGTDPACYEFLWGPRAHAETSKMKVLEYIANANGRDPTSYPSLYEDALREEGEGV
Summary of the method: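 TR-FRET 520/490 nm emission ratio was read after 90 min at room temperature. Wells held 5 nM GST-MAGE-A11, 5 nM Tb-anti-GST, 200 nM FAM-PCF11_4 and 15 µM compound in Tris pH 7.5 buffer with MgCl2, BSA and DTT. %Inhibition was scaled to DMSO and minus-MAGE-A11 controls.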

| Structure (SMILES) | percent inhibition (TR-FRET) |
| --- | --- |
| COC(=O)c1ccc(CNCCCNc2c3ccc(Cl)cc3nc3ccc(OC)cc23)cc1 [SJ000522957] | -133.032 |
| COc1ccc2nc3cc(Cl)ccc3c(NCCCNCc3ccc(Cl)cc3Cl)c2c1 [SJ000522958] | -97.8295 |
| CCCN(CCCNc1c2ccc(Cl)cc2nc2ccc(OC)cc12)Cc1ccc(OC)c(F)c1 [SJ000522963] | -177.507 |
| CCCN(CCCNc1c2ccc(Cl)cc2nc2ccc(OC)cc12)Cc1cn(C)c2ccccc12 [SJ000522964] | -162.244 |
| CCCCN(CCC)CCCNc1c2ccc(Cl)cc2nc2ccc(OC)cc12 [SJ000522971] | -286.942 |
| CCCN(CCCNc1c2ccc(Cl)cc2nc2ccc(OC)cc12)Cc1ccc(CC)cc1 [SJ000522972] | -105.076 |
| CCCN(CCCNc1c2ccc(Cl)cc2nc2ccc(OC)cc12)Cc1nccn1C [SJ000522973] | -159.863 |
| CCCN(CCCNc1c2ccc(Cl)cc2nc2ccc(OC)cc12)Cc1scnc1C [SJ000522976] | -127.026 |

same assay, conditions: single point TR-FRET screening of quinoline compounds against MAGE-A11:PCF11; 15 µM

| Structure (SMILES) | percent inhibition (TR-FRET) |
| --- | --- |
| CCCN(CCCNc1ccnc2cc(Cl)ccc12)Cc1c(C)n(C)n(-c2ccccc2)c1=O [SJ000522755] | 13.6386 |
| CCCN(CCCNc1ccnc2cc(Cl)ccc12)Cc1ccc(OC)cc1 [SJ000522756] | 19.1371 |
| CCCN(CCCNc1ccnc2cc(Cl)ccc12)Cc1ccccc1F [SJ000522757] | 21.9858 |
| CCCN(CCCNc1ccnc2cc(Cl)ccc12)Cc1cccc(F)c1 [SJ000522758] | 27.418 |
| CCCN(CCCNc1ccnc2cc(Cl)ccc12)Cc1ccc(F)cc1 [SJ000522759] | 20.7933 |
| CCCN(CCCNc1ccnc2cc(Cl)ccc12)Cc1cc2ccccc2nc1Cl [SJ000522760] | 12.7954 |
| CCCN(CCCNc1ccnc2cc(Cl)ccc12)Cc1ccc(Cl)c([N+](=O)[O-])c1 [SJ000522761] | 16.951 |
| CCCN(CCCNc1ccnc2cc(Cl)ccc12)Cc1c2ccccc2cc2ccccc12 [SJ000522762] | 15.4935 |
| CCCN(CCCNc1ccnc2cc(Cl)ccc12)Cc1cccc(C#N)c1 [SJ000522763] | 12.9099 |
| COc1ccc2nc3cc(Cl)ccc3c(NCCCNCc3cccc(C)c3)c2c1 [SJ000522956] | -7.0891 |
| COc1ccc2nc3cc(Cl)ccc3c(NCCCNCc3ccc(-c4cccc(Cl)c4)o3)c2c1 [SJ000522959] | -47.4182 |
| COc1ccc2nc3cc(Cl)ccc3c(NCCCNCc3c(Cl)ccc(Cl)c3Cl)c2c1 [SJ000522960] | -81.4922 |
| CCCN(CCCNc1c2ccc(Cl)cc2nc2ccc(OC)cc12)Cc1ccccc1OC(F)(F)F [SJ000522961] | 22.6913 |
| CCCN(CCCNc1c2ccc(Cl)cc2nc2ccc(OC)cc12)Cc1cc2ccccc2s1 [SJ000522962] | -21.5824 |
| CCCN(CCCNc1c2ccc(Cl)cc2nc2ccc(OC)cc12)Cc1cc(OC)ccc1F [SJ000522965] | -81.2358 |
| CCCN(CCCNc1c2ccc(Cl)cc2nc2ccc(OC)cc12)Cc1nc(C)cs1 [SJ000522966] | -82.146 |
| CCCN(CCCNc1c2ccc(Cl)cc2nc2ccc(OC)cc12)Cc1cccc(OC(F)(F)F)c1 [SJ000522967] | 14.4758 |
| CCCN(CCCNc1c2ccc(Cl)cc2nc2ccc(OC)cc12)Cc1c(F)cccc1C(F)(F)F [SJ000522968] | 23.0877 |
| CCCN(CCCNc1c2ccc(Cl)cc2nc2ccc(OC)cc12)Cc1nc2ccccc2s1 [SJ000522969] | -68.773 |
| CCCN(CCCNc1c2ccc(Cl)cc2nc2ccc(OC)cc12)Cc1csc2ccccc12 [SJ000522970] | -51.6891 |
| CCCN(CCCNc1c2ccc(Cl)cc2nc2ccc(OC)cc12)Cc1ccc(Cl)c(C(F)(F)F)c1 [SJ000522974] | 16.3588 |
| CCCN(CCCNc1c2ccc(Cl)cc2nc2ccc(OC)cc12)Cc1cncc(Br)c1 [SJ000522975] | -89.0775 |
